Results: US20150017665A1, “Peptides and Methods for Detecting MPO-ANCA” (The University of North Carolina at Chapel Hill, priority 2012, published 2015)

Legend:
DR2 Tg mice = test: Actively induced anti-MPO associated glomerulonephritis (peptide immunization); assay type: in vivo, mouse; details: day 28
Description: DR2 Tg mice (Ooi et al., Proc. Natl. Acad. Sci. USA 109:E2615 (2012); Rich et al., Eur. J. Immunol. 34:1251 (2004)) were immunized s.c. with 3×100 μg of peptide antigen (OVA323-339, n=4 or MPO442-460, n=10) first in FCA then FIA on days 0, 7 and 14. Mice were culled on day 28.
For indirect immunofluorescence, ethanol fixed thioglycolate induced peritoneal neutrophils were cytospun onto slides, purified serum IgG (1 mg/ml) was applied for 20 minutes then anti-mouse IgG Ab was detected using FITC conjugated anti-mouse IgG Ab (Silenus) (Ooi et al., Proc. Natl. Acad. Sci. USA 109:E2615 (2012); Lock, J. Clin. Pathol. 47:4 (1994)). Albuminuria was assessed by ELISA (Bethyl Laboratories) and haematuria assessed by urine test strips (Combur) from a 24 hour urine sample. Blood urea nitrogen (BUN) was measured using standard laboratory methods on serum collected at the end of experiment. Glomerular abnormalities assessed, on […], PAS stained, formalin fixed, paraffin embedded sections (≧50 glomeruli/mouse), were thickening of the capillary walls and mesangial hypercellularity (Ooi et al., J. Am. Soc. Nephrol. 20:980 (2009)). Total glomerular cell nuclei were enumerated (≧20 glomeruli/mouse). Glomerular neutrophils were detected by immunoperoxidase staining of 6 μm thick, periodate lysine paraformaldehyde fixed, frozen kidney sections using anti-Gr-1 antibodies (RB6-8C5).

[1] = tested on: anti-MPO antibodies of immunized DR2 Tg mice; test: Epitope excision MS of IgG from immunized DR2 Tg mice with recombinant mouse MPO; assay type: binding; details: DR2 Tg mice immunized with MPO aa442-460
Description: (§1) Mass spectrometry analysis of ANCA-negative IgG and mouse IgG samples were conducted as above. With the exception of protein substrate, immobilized ANCA-negative IgG were exposed to whole leukocyte lysate preparation from a healthy donor and mouse IgG to recombinant mouse MPO (R&D Systems).
As HLA-MHC II help shape the B and T cell repertoires, and consequently the response to foreign and self-antigens, we wanted to define the epitope specificity of the anti-MPO autoantibodies that could be induced experimentally using DR2 Tg mice. In this way, we could assess development of the anti-MPO antibody response after immunization of a single epitope in the context of a human MHC II. IgG from sera of immunized mice was profiled for anti-MPO epitope specificity using epitope excision MS. DR2 Tg mice developed antibodies targeting the human B cell epitope aa447-459 which is within a conserved region of both murine and human MPO. Unpredictably, immunized DR2 Tg mice initiated a polyclonal response producing autoantibodies against the entire MPO molecule. The epitope profile was astonishingly similar to that of the MPO-ANCA human profile (Table 6), indicative of the critical nature of this epitope.

MPO-ANCA [2] = test: Peptide ELISA with total IgG (Chapel Hill and Groningen); assay type: binding, human; details: for MPO-ANCA specific for the epitope detected by ELISA, patients positive/tested: isolated Ig
Description: A total of 195 IgG samples were tested by native MPO or peptide ELISA. Samples included those from healthy controls (n=59), active disease (n=80) and remission patients (n=56). Total IgG was added to wells (2 μg/well) precoated with 1-2 μg peptide (UNC-CH peptide synthesis core). Goat anti-human with alkaline phosphatase conjugate secondary antibody specific to IgG (H+L) (Millipore, Billerica, Mass.) (1:10,000) was added and detected using 1-Step PNPP substrate (Thermo Scientific) and read at λ=405 nm after 30 min. Identical peptides were used in ELISAs at both locations; all other substrates used to test NL cohort samples by ELISAs were prepared in Groningen. Total IgG (1:500˜2 mg/well) was added to precoated wells blocked with 1% BSA. Secondary antibody, goat anti-human conjugated with alkaline phosphatase (A5403; Sigma-Aldrich) (1:5000), was added and detected using p-nitrophenyl-phosphate disodium substrate.

MPO-ANCA [3] = test: Epitope excision MALDI-TOF/TOF MS of patient and healthy Ig with native MPO; assay type: binding; design: key: HC: Healthy control; Active disease; Remission; details: human Ig
From the text: Total immunoglobulin (IgG) was purified from sera using protein A/G PLUS-Agarose Reagent according to commercial protocol (Santa Cruz Biotechnology). Purified IgG was immobilized on CNBr-activated Sepharose 4B (GE Healthcare) in compact reaction columns (CRC, USB Corporation) and exposed to native MPO protein (MPO, Elastin Products Co, Inc) followed by digestion with sequencing grade TPCK-treated trypsin (Worthington). MPO-peptides remaining bound to IgG after digestion were eluted with 0.1% trifluoro acetic acid and analyzed on a 4800 Plus Matrix-Assisted Laser Desorption Ionization Time of Flight Mass Spectrometry (MALDI TOF/TOF MS/MS) in conjunction with ProteinPilot software (AB SCIEX).
To identify epitopes of low titer autoantibodies, ^18O labeling (Mirza et al., J. Proteome Res. 7:3042 (2008)) was used to differentiate between the signal and the noise in the MS and MSMS spectra using the 4 Da shifts between the corresponding spectra of labeled and non-labeled peptides. Mass spectrometry analysis for epitopes recognized by MPO autoantibodies from healthy individuals, and for detection of low ANCA titers in remission samples required the use of isotope H2^18O to increase sensitivity (Cambridge Isotope Laboratories). Samples from healthy individuals (n=10) and MPO-ANCA patients in clinical remission (n=35) were processed in the presence of H2^18O. Incorporation of H2^18O on the carboxyl terminus of each proteolytic fragment of MPO during tryptic digestion, trypsin buffer was made with the isotope H2^18O as a diluent.
MPO-ANCA positive patients (n=45) from the University of North Carolina cohort (UNC) were analyzed in the initial studies. Demographics of the cohort (Table 2) indicate a predominantly Caucasian group. Approximately 40% are diagnosed with microscopic polyangiitis (MPA), 40% with renal-limited disease and 20% are diagnosed with granulomatosis with polyangiitis (GPA). To compare epitope specificities related to disease activity, longitudinal samples were analyzed to include active disease (n=52) and remission (n=35) from the UNC cohort (Tables 3 and 4). Ten healthy subjects were included in the analyses. Purified immunoglobulin (Ig) from sera samples was subjected to analysis by epitope excision MALDI-TOF/TOF mass spectrometry (depicted in FIG. 3A) to identify epitope profiles of autoantibodies reactive with MPO. In order to epitope map low titer anti-MPO antibodies from healthy subjects and from patients in disease remission, an approach was designed using the ^16O-to-^18O exchange technique, an adaptation of a proteomics-based quantification method (Mirza et al., J. Proteome Res. 7:3042 (2008)). Incorporation of H2^18O on the carboxyl termini of proteolytic fragments produces a 4 Da mass shift in the MS spectra, decipherable from background noise. MPO epitopes unique to Ig from patients with active disease were designated ‘exclusive to active disease’; epitopes identified in remission samples were designated ‘persistent during remission’; and those present in samples from healthy subjects were designated asymptomatic or ‘natural’.

[4] = tested on: IgG from ANCA-negative AAV patients; test: Epitope excision MS of ANCA-negative IgG with whole leukocyte lysate; assay type: binding, human; details: total Ig from ANCA-negative AAV patients
Description: as §1
A variation of epitope excision MS for MPO-ANCA was adapted into a ‘discovery’ tool for identifying unknown autoantigens in ANCA-negative AAV, which presents clinically as vasculitis although with a negative serology for MPO-ANCA and PR3-ANCA. ANCA-negative AAV patients were identified by retrospective review of the medical records, with criteria of histological evidence of vasculitis and negative serological test results from the UNC Hospital clinical laboratory. As an additional measure, sera samples selected for analysis were retested for ANCA reactivity by the laboratory of Dr. John Niles, Massachusetts General Hospital, Boston, USA and were confirmed to be ANCA-negative. Protein lysate of total peripheral blood leukocytes were probed for antigen/s that were reactive with purified total Ig from ANCA-negative AAV patients' sera (FIG. 5A). […] MPO-ANCA specific for this epitope were detected by ELISA using isolated Ig from 8/10 UNC AAV patients and from 6/11 NL AAV patients (Table 2).

[5] = tested on: anti-MPO^447-459 autoantibody; test: Epitope masking ELISA with ceruloplasmin and its fragments; assay type: binding, human
From the text: Serum proteins that bound immobilized MPO peptide aa447-459 were eluted and sequenced for identification. […] Sequenced on a 4800 MALDI TOF-TOF, the protein was identified as ceruloplasmin (CP), and confirmed by western blot analysis probed with a rabbit anti-human anti-CP polyclonal antibody (Abeam). Native CP was purchased (Enzo Life Science) and proteolytically digested in vitro by plasmin (Haemtech).
(§2) To isolate the putative serum factor, immobilized MPO aa447-459 peptide was used as bait to fish-out host proteins with binding capacity. […] However, the CP bound to aa447-459 was primarily a 50 kD protein on sodium dodecyl sulfate polyacrylamide gel electrophoresis (SDS-PAGE), while full length CP is 151 kD (FIG. 6D). An anti-ceruloplasmin western blot confirmed the fragment to be a portion of CP (FIG. 6E). To test the role of proteolytic cleavage in generating the blocking factor, a plasmin-generated fragment of CP (Kingston et al., Proc. Natl. Acad. Sci. USA 74:5377 (1977)) was tested for epitope masking capability (FIG. 6F).

[6] = tested on: MPO-ANCA IgG (polyclonal); test: Effect of CP on binding of polyclonal MPO-ANCA Ig to native MPO (ELISA); design: species or system human; details: MPO-ANCA IgG from four patients
From the text: as §2

RKIVGAMVQIITY (listed as Homo sapiens) [aa447-459]
glomerular disease (DR2 Tg mice): develop glomerulonephritis | Epitopes found in immunized mice [1]: RKIVGAMVQIITY | level of ELISA reactivity versus disease activity (MPO-ANCA [2]; ANCA-negative patients, UNC (n=4) and NL (n=5), longitudinal): corresponded well with disease activity, declining to low levels as patients entered disease remission | share of MPO-ANCA positive AAV patients with active disease in whom the epitope was identified (MPO-ANCA [2]; MPO-ANCA positive AAV, active disease): ~50% | reactivity by ELISA, share of patient samples (MPO-ANCA [2]; NL population, active disease): 52.2% | reactivity by ELISA, share of patient samples (MPO-ANCA [2]; UNC MPO-ANCA patient samples, active disease): 42.9% | ELISA reactivity in clinical remission (MPO-ANCA [2]; UNC and NL cohorts, remission samples): Reactivity declined in clinical remission | MPO-ANCA specific for the epitope detected by ELISA, patients positive/tested (MPO-ANCA [2]; ANCA-negative NL AAV patients): 6/11 | MPO-ANCA specific for the epitope detected by ELISA, patients positive/tested (MPO-ANCA [2]; ANCA-negative UNC AAV patients): 8/10 | Found in samples: Healthy control, Active disease, or Remission, (HC, A, R) (MPO-ANCA [3]; Table 1): A | Found in samples: Healthy control, Active disease, or Remission, (HC, A, R) (MPO-ANCA [3]; Table 6): A | peptide eluted from ANCA-negative Ig (MS) [4]: A sole peptide was eluted and identified

urokinase [reference compound]
generation of a functional (blocking) ceruloplasmin fragment by serum proteases [5]: produced a functional fragment

thrombin [reference compound]
generation of a functional (blocking) ceruloplasmin fragment by serum proteases [5]: did not

B1: digested CP: ceruloplasmin digested with plasmin in vitro to produce a 50 kD fragment (protein)
chain: SVPPSASHVAPTETFTYEWTVPKEVGPTNADPVCLAKMYYSAVEPTKDIFTGLIGPMKICKKGSLHANGRQKDVDKEFYLFPTVFDENESLLLEDNIRMFTTAPDQVDKEDEDFQESNKMHSMNGFMYGNQPGLTMCKGDSVVWYLFSAGNEADVHGIYFSGNTYLWRGERRDTANLFPQTSLTLHMWPDTEGTFNVECLTTDHYTGGMKQKYTVNQCRRQSEDSTFYLGERTYYIAAVEVEWDYSPQREWEKELHHLQEQNVSNAFLDKGEFYIGSKYKKVVYRQYTDSTFRVPVERKAEEEHLGILGPQLHADVGDKVKIIFKNMATRPYSIHAHGVQTESSTVTPTLPGETLTYVWKIPERSGAGTEDSACIPWAYYSTVDQVKDLYSGLIGPLIVCRRPYL
decrease of anti-MPO^447-459 autoantibody reactivity ([5]; ELISA, n=8): 30-50% | effect on binding of polyclonal MPO-ANCA Ig to native MPO [6]: did not affect the overall binding
